Earlier results, collected in US12576020B2, “Increasing the stability of agents for the treatment of keratinous material” (Henkel AG & Co. KGaA, priority 2019, dated 2026).

Conditions: 25° C.

Structure (SMILES)	solubility in water	solubility in water (in words)
O=S(=O)([O-])c1ccc(N=Nc2c(O)ccc3ccccc23)cc1.[Na+] [Acid Orange 7, sodium salt of 4-[(2-hydroxy-1-naphthyl)azo]benzene sulphonate]	more than 7 g/L	
Nc1cc(S(=O)(=O)[O-])cc2cc(S(=O)(=O)[O-])c(N=Nc3ccccc3)c(O)c12.[Na+].[Na+] [Acid Red 33, disodium salt of 5-amino-4-hydroxy-3-(phenylazo)-naphthalene-2,7-disulphonate]	2.5 mg/mL	
O=C([O-])c1c(Cl)c(Cl)c(Cl)c(Cl)c1-c1c2c(Br)cc(=O)c(Br)c-2oc2c(Br)c(O)cc(Br)c12.O=C([O-])c1c(Cl)c(Cl)c(Cl)c(Cl)c1-c1c2c(Br)cc(=O)c(Br)c-2oc2c(Br)c(O)cc(Br)c12.[Na+].[Na+] [Acid Red 92, disodium salt of 3,4,5,6-tetrachloro-2-(1,4,5,8-tetrabromo-6-hydroxy-3-oxoxanthen-9-yl)benzoic acid]	greater than 10 g/L	
O=C([O-])C1=NN(c2ccc(S(=O)(=O)[O-])cc2)C(=O)C1N=Nc1ccc(S(=O)(=O)[O-])cc1.[Na+].[Na+].[Na+] (stereo not shown) [Acid Yellow 23, tisodium salt of 4,5-dihydro-5-oxo-1-(4-sulfophenyl)-4-((4-sulfophenyl)azo)-1H-pyrazole-3-carboxylic acid]		highly soluble
